Results from the NIST ThermoML archive (doi:10.1016/j.jct.2015.01.004).
“And” between values parts separate entries of the source, which are not always exact repeats. Equal values may be shown once. Numbers after ± are expanded uncertainties.

Test: molar heat capacity at constant pressure; xn = mol fraction of the nth substance listed
Conditions: 100 kPa

[Si] [silicon] + [Li]
Conditions | molar heat capacity at constant pressure
46.23 K, Crystal of intercomponent compound 2, relaxation calorimeter, x2 = 0.804 | 2.145 ± 0.087 J/K/mol and 2.142 ± 0.087 J/K/mol
48.69 K, Crystal of intercomponent compound 1, relaxation calorimetry, x2 = 0.81 | 2.259 ± 0.092 J/K/mol
48.7 K, Crystal of intercomponent compound 2, relaxation calorimeter, x2 = 0.804 | 2.429 ± 0.099 J/K/mol
48.72 K, Crystal of intercomponent compound 2, relaxation calorimeter, x2 = 0.804 | 2.429 ± 0.099 J/K/mol
50 K, Crystal of intercomponent compound 1, relaxation calorimetry + DSC, x2 = 0.81 | 2.41 ± 0.1 J/K/mol
50 K, Crystal of intercomponent compound 2, relaxation calorimetry + DSC, x2 = 0.804 | 2.61 ± 0.11 J/K/mol
51.29 K, Crystal of intercomponent compound 1, relaxation calorimetry, x2 = 0.81 | 2.56 ± 0.1 J/K/mol
51.3 K, Crystal of intercomponent compound 2, relaxation calorimeter, x2 = 0.804 | 2.74 ± 0.11 J/K/mol
54.03 K, Crystal of intercomponent compound 1, relaxation calorimetry, x2 = 0.81 | 2.89 ± 0.12 J/K/mol
54.03 K, Crystal of intercomponent compound 2, relaxation calorimeter, x2 = 0.804 | 3.08 ± 0.13 J/K/mol
54.04 K, Crystal of intercomponent compound 2, relaxation calorimeter, x2 = 0.804 | 3.08 ± 0.13 J/K/mol
56.91 K, Crystal of intercomponent compound 1, relaxation calorimetry, x2 = 0.81 | 3.26 ± 0.13 J/K/mol
56.92 K, Crystal of intercomponent compound 2, relaxation calorimeter, x2 = 0.804 | 3.45 ± 0.14 J/K/mol
59.95 K, Crystal of intercomponent compound 1, relaxation calorimetry, x2 = 0.81 | 3.65 ± 0.15 J/K/mol
59.96 K, Crystal of intercomponent compound 2, relaxation calorimeter, x2 = 0.804 | 3.84 ± 0.16 J/K/mol
60 K, Crystal of intercomponent compound 1, relaxation calorimetry + DSC, x2 = 0.81 | 3.63 ± 0.15 J/K/mol
60 K, Crystal of intercomponent compound 2, relaxation calorimetry + DSC, x2 = 0.804 | 3.81 ± 0.15 J/K/mol
63.15 K, Crystal of intercomponent compound 1, relaxation calorimetry, x2 = 0.81 | 4.08 ± 0.17 J/K/mol
63.17 K, Crystal of intercomponent compound 2, relaxation calorimeter, x2 = 0.804 | 4.27 ± 0.17 J/K/mol
63.18 K, Crystal of intercomponent compound 2, relaxation calorimeter, x2 = 0.804 | 4.27 ± 0.17 J/K/mol
66.53 K, Crystal of intercomponent compound 1, relaxation calorimetry, x2 = 0.81 | 4.52 ± 0.18 J/K/mol
66.54 K, Crystal of intercomponent compound 2, relaxation calorimeter, x2 = 0.804 | 4.72 ± 0.19 J/K/mol
66.55 K, Crystal of intercomponent compound 2, relaxation calorimeter, x2 = 0.804 | 4.73 ± 0.19 J/K/mol
70 K, Crystal of intercomponent compound 1, relaxation calorimetry + DSC, x2 = 0.81 | 5.02 ± 0.2 J/K/mol
70 K, Crystal of intercomponent compound 2, relaxation calorimetry + DSC, x2 = 0.804 | 5.21 ± 0.21 J/K/mol
70.08 K, Crystal of intercomponent compound 1, relaxation calorimetry, x2 = 0.81 | 5.02 ± 0.2 J/K/mol
70.1 K, Crystal of intercomponent compound 2, relaxation calorimeter, x2 = 0.804 | 5.22 ± 0.21 J/K/mol
70.11 K, Crystal of intercomponent compound 2, relaxation calorimeter, x2 = 0.804 | 5.22 ± 0.21 J/K/mol
73.83 K, Crystal of intercomponent compound 1, relaxation calorimetry, x2 = 0.81 | 5.54 ± 0.23 J/K/mol
73.84 K, Crystal of intercomponent compound 2, relaxation calorimeter, x2 = 0.804 | 5.75 ± 0.23 J/K/mol
73.86 K, Crystal of intercomponent compound 2, relaxation calorimeter, x2 = 0.804 | 5.75 ± 0.23 J/K/mol
77.77 K, Crystal of intercomponent compound 1, relaxation calorimetry, x2 = 0.81 | 6.09 ± 0.25 J/K/mol
77.78 K, Crystal of intercomponent compound 2, relaxation calorimeter, x2 = 0.804 | 6.31 ± 0.26 J/K/mol
77.8 K, Crystal of intercomponent compound 2, relaxation calorimeter, x2 = 0.804 | 6.32 ± 0.26 J/K/mol
80 K, Crystal of intercomponent compound 1, relaxation calorimetry + DSC, x2 = 0.81 | 6.43 ± 0.26 J/K/mol
80 K, Crystal of intercomponent compound 2, relaxation calorimetry + DSC, x2 = 0.804 | 6.65 ± 0.27 J/K/mol
81.93 K, Crystal of intercomponent compound 1, relaxation calorimetry, x2 = 0.81 | 6.66 ± 0.27 J/K/mol
81.94 K, Crystal of intercomponent compound 2, relaxation calorimeter, x2 = 0.804 | 6.9 ± 0.28 J/K/mol
81.95 K, Crystal of intercomponent compound 2, relaxation calorimeter, x2 = 0.804 | 6.9 ± 0.28 J/K/mol
86.31 K, Crystal of intercomponent compound 1, relaxation calorimetry, x2 = 0.81 | 7.27 ± 0.3 J/K/mol
86.32 K, Crystal of intercomponent compound 2, relaxation calorimeter, x2 = 0.804 | 7.53 ± 0.31 J/K/mol
86.33 K, Crystal of intercomponent compound 2, relaxation calorimeter, x2 = 0.804 | 7.53 ± 0.31 J/K/mol
90 K, Crystal of intercomponent compound 1, relaxation calorimetry + DSC, x2 = 0.81 | 7.82 ± 0.32 J/K/mol
90 K, Crystal of intercomponent compound 2, relaxation calorimetry + DSC, x2 = 0.804 | 8.08 ± 0.33 J/K/mol
90.93 K, Crystal of intercomponent compound 1, relaxation calorimetry, x2 = 0.81 | 7.89 ± 0.32 J/K/mol
90.93 K, Crystal of intercomponent compound 2, relaxation calorimeter, x2 = 0.804 | 8.14 ± 0.33 J/K/mol
90.95 K, Crystal of intercomponent compound 2, relaxation calorimeter, x2 = 0.804 | 8.17 ± 0.33 J/K/mol
91 K, Crystal of intercomponent compound 2, relaxation calorimeter, x2 = 0.804 | 8.16 ± 0.33 J/K/mol
91.01 K, Crystal of intercomponent compound 1, relaxation calorimetry, x2 = 0.81 | 7.88 ± 0.32 J/K/mol
91.02 K, Crystal of intercomponent compound 2, relaxation calorimeter, x2 = 0.804 | 8.18 ± 0.33 J/K/mol
95.01 K, Crystal of intercomponent compound 1, relaxation calorimetry, x2 = 0.81 | 8.41 ± 0.34 J/K/mol
95.02 K, Crystal of intercomponent compound 2, relaxation calorimeter, x2 = 0.804 | 8.71 ± 0.35 J/K/mol
95.04 K, Crystal of intercomponent compound 2, relaxation calorimeter, x2 = 0.804 | 8.73 ± 0.35 J/K/mol
99.06 K, Crystal of intercomponent compound 2, relaxation calorimeter, x2 = 0.804 | 9.29 ± 0.38 J/K/mol
99.07 K, Crystal of intercomponent compound 1, relaxation calorimetry, x2 = 0.81 | 8.94 ± 0.36 J/K/mol
99.08 K, Crystal of intercomponent compound 2, relaxation calorimeter, x2 = 0.804 | 9.32 ± 0.38 J/K/mol
100 K, Crystal of intercomponent compound 1, relaxation calorimetry + DSC, x2 = 0.81 | 9.14 ± 0.37 J/K/mol
100 K, Crystal of intercomponent compound 2, relaxation calorimetry + DSC, x2 = 0.804 | 9.44 ± 0.38 J/K/mol
103.16 K, Crystal of intercomponent compound 1, relaxation calorimetry, x2 = 0.81 | 9.52 ± 0.39 J/K/mol
103.16 K, Crystal of intercomponent compound 2, relaxation calorimeter, x2 = 0.804 | 9.83 ± 0.4 J/K/mol
103.18 K, Crystal of intercomponent compound 2, relaxation calorimeter, x2 = 0.804 | 9.87 ± 0.4 J/K/mol
107.24 K, Crystal of intercomponent compound 1, relaxation calorimetry, x2 = 0.81 | 10.04 ± 0.41 J/K/mol
107.25 K, Crystal of intercomponent compound 2, relaxation calorimeter, x2 = 0.804 | 10.37 ± 0.42 J/K/mol
107.26 K, Crystal of intercomponent compound 2, relaxation calorimeter, x2 = 0.804 | 10.4 ± 0.42 J/K/mol
110 K, Crystal of intercomponent compound 1, relaxation calorimetry + DSC, x2 = 0.81 | 10.39 ± 0.42 J/K/mol
110 K, Crystal of intercomponent compound 2, relaxation calorimetry + DSC, x2 = 0.804 | 10.73 ± 0.44 J/K/mol
111.29 K, Crystal of intercomponent compound 1, relaxation calorimetry, x2 = 0.81 | 10.53 ± 0.43 J/K/mol
111.29 K, Crystal of intercomponent compound 2, relaxation calorimeter, x2 = 0.804 | 10.88 ± 0.44 J/K/mol
111.31 K, Crystal of intercomponent compound 2, relaxation calorimeter, x2 = 0.804 | 10.88 ± 0.44 J/K/mol
115.39 K, Crystal of intercomponent compound 1, relaxation calorimetry, x2 = 0.81 | 11.05 ± 0.45 J/K/mol
115.4 K, Crystal of intercomponent compound 2, relaxation calorimeter, x2 = 0.804 | 11.39 ± 0.46 J/K/mol
115.41 K, Crystal of intercomponent compound 2, relaxation calorimeter, x2 = 0.804 | 11.41 ± 0.46 J/K/mol
119.47 K, Crystal of intercomponent compound 1, relaxation calorimetry, x2 = 0.81 | 11.55 ± 0.47 J/K/mol
119.47 K, Crystal of intercomponent compound 2, relaxation calorimeter, x2 = 0.804 | 11.87 ± 0.48 J/K/mol
119.49 K, Crystal of intercomponent compound 2, relaxation calorimeter, x2 = 0.804 | 11.92 ± 0.48 J/K/mol
120 K, Crystal of intercomponent compound 1, relaxation calorimetry + DSC, x2 = 0.81 | 11.56 ± 0.47 J/K/mol
120 K, Crystal of intercomponent compound 2, relaxation calorimetry + DSC, x2 = 0.804 | 11.93 ± 0.48 J/K/mol
123.51 K, Crystal of intercomponent compound 1, relaxation calorimetry, x2 = 0.81 | 12 ± 0.49 J/K/mol
123.51 K, Crystal of intercomponent compound 2, relaxation calorimeter, x2 = 0.804 | 12.35 ± 0.5 J/K/mol
123.53 K, Crystal of intercomponent compound 2, relaxation calorimeter, x2 = 0.804 | 12.4 ± 0.5 J/K/mol
127.61 K, Crystal of intercomponent compound 1, relaxation calorimetry, x2 = 0.81 | 12.47 ± 0.51 J/K/mol
